Experimental data from US20230183237A1, “COMPETITIVE AND NONCOMPETITIVE INHIBITORS OF THE MUSCARINIC ACETYLCHOLINE RECEPTOR M5” (Vanderbilt University, priority 2020, published 2023).
Like-named read-outs stand apart in the source and are kept apart here.

Biological target: T1, hM5 (Homo sapiens, UniProt P08912)
T1 construct: expressed in transfected cells
T1 sequence (P08912 1-532): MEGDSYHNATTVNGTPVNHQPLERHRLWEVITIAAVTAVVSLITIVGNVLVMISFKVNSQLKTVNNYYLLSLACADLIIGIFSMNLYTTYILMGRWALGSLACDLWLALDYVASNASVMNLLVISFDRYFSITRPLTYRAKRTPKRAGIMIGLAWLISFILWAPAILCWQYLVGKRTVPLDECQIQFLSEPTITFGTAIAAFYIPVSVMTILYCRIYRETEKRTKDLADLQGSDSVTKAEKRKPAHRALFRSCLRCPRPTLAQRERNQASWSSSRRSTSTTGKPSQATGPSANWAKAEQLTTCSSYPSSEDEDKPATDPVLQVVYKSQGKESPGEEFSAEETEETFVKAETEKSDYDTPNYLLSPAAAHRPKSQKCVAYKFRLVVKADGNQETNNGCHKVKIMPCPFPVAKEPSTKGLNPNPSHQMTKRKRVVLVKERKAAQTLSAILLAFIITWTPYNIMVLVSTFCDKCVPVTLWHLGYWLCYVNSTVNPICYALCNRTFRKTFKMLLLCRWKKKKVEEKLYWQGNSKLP
Experiment: Calcium mobilization concentration-response (IC50 vs EC80 acetylcholine), CHO hM5
Format: cell-based
Details: CELL LINE hM5, read-out: IC50
Procedure, shortened: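 CHO cells stably expressing hM5, dye-loaded, in HBSS/20 mM HEPES/2.5 mM probenecid, pH 7.4. Compounds were pre-incubated 140 s before an EC80 acetylcholine challenge, with calcium flux read kinetically.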

[1] = calcium mobilization, EC80 acetylcholine addition

| SMILES | IC50 [1] | IC50 (vs EC80 acetylcholine) |
| --- | --- | --- |
| COc1ccc(S(=O)(=O)N2CCC(c3cn4ncnc4cc3C)CC2)cc1C(F)(F)F [Compound 130, 6-(1-((4-methoxy-3-(trifluoromethyl)phenyl)sulfonyl)piperidin-4-yl)-7-methyl-[1,2,4]triazoto[1,5-a]pyridine] | > 10000 nM |  |
| Cc1cc2ncnn2cc1[C@@H]1CCN(S(=O)(=O)c2cnn3c2CCCC3)C[C@H]1O (racemic) [Compound 270, (rac)-trans-4-(7-methyl-[1,2,4]triazolo[1,5-a]pyridin-6-yl)-1-((4,5,6,7-tetrahydropyrazolo[1,5-a]pyridin-3-yl)sulfonyl)piperidin-3-ol] | 105 nM |  |
| Cc1cc2ncnn2cc1C1CCN(S(=O)(=O)c2ccc3c(c2)C(C)CO3)CC1 (stereo not drawn) [Compound 73, 7-methyl-6-(1-((3-methyl-2,3-dihydrobenzofuran-5-yl)sulfonyl)piperidin-4-yl)-[1,2,4]triazolo[1,5-a]pyridine] | 69 nM |  |
| Cc1cc(S(=O)(=O)N2CCC(c3nn4ccnc4cc3C)CC2)cnc1Cl [Compound 54, 6-(1-((6-chloro-5-methylpyridin-3-yl)sulfonyl)piperidin-4-yl)-7-methylimidazo[1,2-b]pyridazine] | > 10000 nM |  |
| O=S(=O)(c1ccc2c(c1)CCO2)N1CCC(c2cc3cnccc3s2)CC1 [Compound 14, 2-(1-((2,3-dihydrobenzofuran-5-yl)sulfonyl)piperidin-4-yl)thieno[3,2-c]pyridine] | > 10000 nM |  |
| Cc1c(S(=O)(=O)N2CCC(c3cn4ncnc4cc3F)CC2)cnn1C [Compound 161, 6-(1-((1,5-dimethyl-1H-pyrazol-4-yl)sulfonyl)piperidin-4-yl)-7-fluoro-[1,2,4]triazolo[1,5-a]pyridine] | 125 nM |  |
| COc1ccc(S(=O)(=O)N2CCC(c3nn4ccnc4cc3C)CC2)cn1 [Compound 42, 6-(1-((6-methoxypyridin-3-yl)sulfonyl)piperidin-4-yl)-7-methylimidazo[1,2-b]pyridazine] | > 10000 nM |  |
| COc1cc2ncnn2cc1C1CCN(S(=O)(=O)c2cnn(C)c2C)CC1 [Compound 201, 6-(1-((1,5-dimethyl-1H-pyrazol-4-yl)sulfonyl)piperidin-4-yl)-7-methoxy-[1,2,4]triazolo[1,5-a]pyridine] | 765 nM |  |
| Cc1cc2nccn2nc1C1CCN(S(=O)(=O)c2cnn3c2CCCC3)CC1 [Compound 247, 7-methyl-6-(1-((4,5,6,7-tetrahydropyrazolo[1,5-a]pyridin-3-yl)sulfonyl)piperidin-4-yl)imidazo[1,2-b]pyridazine] | 19 nM |  |
| O=S(=O)(c1cnn2c1CCC2)N1CCC(c2ccc3ncnn3c2)CC1 [Compound 285, 6-(1-((5,6-dihydro-4H-pyrrolo[1,2-b]pyrazol-3-yl)sulfonyl)piperidin-4-yl)-[1,2,4]triazolo[1,5-a]pyridine] | 51 nM |  |
| Cc1cc2ncnn2cc1C1=CCN(S(=O)(=O)c2ccc3c(c2)C(C)CO3)CC1 (stereo not drawn) [Compound 65, 7-Methyl-6-(1-((3-methyl-2,3-dihydrobenzofuran-5-yl)sulfonyl)-1,2,3,6-tetrahydropyridin-4-yl)[1,2,4]triazolo[1,5-a]pyridine] | 384 nM |  |
| Cc1cc2ncnn2cc1C1CCN(S(=O)(=O)c2ccc(F)cc2)CC1 [Compound 153, 6-(1-((4-fluorophenyl)sulfonyl)piperidin-4-yl)-7-methyl-[1,2,4]triazolo[1,5-a]pyridine] | 4100 nM |  |
| Cc1cc2nccn2nc1C1CCN(S(=O)(=O)c2c(C)nn(C)c2Cl)CC1 [Compound 248, 6-(1-((5-chloro-1,3-dimethyl-1-pyrazol-4-yl)sulfonyl)piperidin-4-yl)-7-methylimidazo[1,2-b]pyridazine] | 69 nM |  |
| Cc1sc(C#N)nc1C1CCN(S(=O)(=O)c2cnn(C)c2C)CC1 [Compound 225, 4-(1-((1,5-dimethyl-1H-pyrazol-4-yl)sulfonyl)piperidin-4-yl)-5-methylthiazole-2-carbonitrile] | > 10000 nM |  |

Next, values leading:

| IC50 [1] | IC50 (vs EC80 acetylcholine) | SMILES |
| --- | --- | --- |
|  | 58 nM | [2H]C1([2H])CC(c2cn3ncnc3c(F)c2C)CC([2H])([2H])N1S(=O)(=O)c1cc(C)ns1 [Compound 527, 5-((4-(8-fluoro-7-methyl-[1,2,4]triazolo[1,5-a]pyridin-6-yl)piperidin-1-yl-2,2,6,6-d4)sulfonyl)-3-methylisothiazole] |
|  | > 10000 nM | CO[C@H]1CN(S(=O)(=O)c2cnn(C)c2Cl)CC[C@@H]1c1cn2ncnc2cc1C (single isomer, unassigned) [Compound 460] |
|  | 98 nM | [2H]C1([2H])CC(c2cn3ncnc3cc2Cl)CC([2H])([2H])N1S(=O)(=O)c1nncn1C [Compound 580, 7-chloro-6-(1-((4-methyl-4H-1,2,4-triazol-3-yl)sulfonyl)piperidin-4-yl-2,2,6,6-d4)-[1,2,4]triazolo[1,5-a]pyridine] |
| 13 nM |  | Cc1cc2ncnn2cc1C1CCN(S(=O)(=O)c2c(Cl)nc3sccn23)CC1 [Compound 324, 6-chloro-5-((4-(7-methyl-[1,2,4]triazolo[1,5-a]pyridin-6-yl)piperidin-1-yl)sulfonyl)imidazo[2,1-b]thiazole] |
| 1200 nM |  | Cc1cc2ncnn2cc1C1CCN(S(=O)(=O)c2cccc3nn(C)cc23)CC1 [Compound 290, 7-methyl-6-(1-((2-methyl-2H-indazol-4-yl)sulfonyl)piperidin-4-yl)-[1,2,4]triazolo[1,5-a]pyridine] |
|  | 6310 nM | Cc1cc(C(F)(F)F)ncc1C1CCN(S(=O)(=O)c2cnn3c2OCCC3)CC1 [Compound 398, 3-((4-(4-methyl-6-(trifluoromethyl)pyridin-3-yl)piperidin-1-yl)sulfonyl)-6,7-dihydro-5H-pyrazolo[5,1-b][1,3]oxazine] |
| > 10000 nM |  | O=S(=O)(c1cnn2c1CCC2)N1CCC(c2ccncc2)CC1 [Compound 366, 3-((4-(pyridin-4-yl)piperidin-1-yl)sulfonyl)-5,6-dihydro-4H-pyrrolo[1,2-b]pyrazole] |
|  | 1990 nM | Cc1cc2ncccc2cc1C1CCN(S(=O)(=O)c2cnn3cccnc23)CC1 [Compound 448, 7-methyl-6-(1-(pyrazolo[1,5-a]pyrimidin-3-ylsulfonyl)piperidin-4-yl)quinoline] |
| 2510 nM |  | Cc1cc(C(F)(F)F)ncc1C1CCN(S(=O)(=O)c2cnn(C)c2C)CC1 [Compound 394, 5-(1-((1,5-dimethyl-1H-pyrazol-4-yl)sulfonyl)piperidin-4-yl)-4-methyl-2-(trifluoromethyl)pyridine] |
| > 10000 nM |  | O=S(=O)(c1ccc2c(c1)CCO2)N1CCC(c2ccc3c(c2)OCO3)CC1 [Compound 359, 4-(benzo[d][1,3]dioxol-5-yl)-1-((2,3-dihydrobenzofuran-5-yl)sulfonyl)piperidine] |
|  | 11 nM | [2H]C1([2H])CC(c2cn3ncnc3c(F)c2C)CC([2H])([2H])N1S(=O)(=O)c1cnc2sccn12 [Compound 537, 5-((4-(8-fluoro-7-methyl-[1,2,4]triazolo[1,5-a]pyridin-6-yl)piperidin-1-yl-2,2,6,6-d4)sulfonyl)imidazo[2,1-b]thiazole] |
|  | 493 nM | Cc1cc2ncnn2cc1C1CCN(S(=O)(=O)c2nncn2C)CC1 [Compound 524, 7-methyl-6-(1-((4-methyl-4H-1,2,4-triazol-3-yl)sulfonyl)piperidin-4-yl)-[1,2,4]triazolo[1,5-a]pyridine] |
|  | 6 nM | Cc1cc(S(=O)(=O)N2CCC(c3cn4ncnc4cc3C)CC2)sn1 [Compound 491, 3-methyl-5-((4-(7-methyl-[1,2,4]triazolo[1,5-a]pyridin-6-yl)piperidin-1-yl)sulfonyl)isothiazole] |
| 106 nM |  | CCc1cc2ncnn2cc1C1CCN(S(=O)(=O)c2c(Cl)nc3sccn23)CC1 [Compound 336, 6-chloro-5-((4-(7-ethyl-[1,2,4]triazolo[1,5-a]pyridin-6-yl)piperidin-1-yl)sulfonyl)imidazo[2,1-b]thiazole] |
| 11 nM |  | Cc1c(S(=O)(=O)N2CC=C(c3cc4c(cc3Cl)OCO4)CC2)cnn1C [Compound 350, 4-(6-chlorobenzo[d][1,3]dioxol-5-yl)-1-((1,5-dimethyl-1H-pyrazol-4-yl)sulfonyl)-1,2,3,6-tetrahydropyridine] |
|  | 303 nM | Cc1cc2ccnn2cc1C1CCN(S(=O)(=O)c2cnn(C)c2C#N)CC1 [Compound 481, 1-methyl-4-((4-(5-methylpyrazolo[1,5-a]pyridin-6-yl)piperidin-1-yl)sulfonyl)-1-pyrazole-5-carbonitrile] |
|  | 33 nM | Cc1c(C2CCN(S(=O)(=O)c3cnn4ccccc34)CC2)cn2ncnc2c1F [Compound 545, 8-fluoro-7-methyl-6-(1-(pyrazolo[1,5-a]pyridin-3-ylsulfonyl)piperidin-4-yl)-[1,2,4]triazolo[1,5-a]pyridine] |
|  | > 10000 nM | Cc1cc2ncnn2cc1C1CCN(S(=O)(=O)c2cnn(C)c2C2CCNCC2)CC1 [Compound 577, 7-Methyl-6-(1-((1-methyl-5-(piperidin-4-yl)-1H-pyrazol-4-yl)sulfonyl)piperidin-4-yl)-[1,2,4]triazolo[1,5-a]pyridine] |
|  | 325 nM | Cn1ncc(S(=O)(=O)N2CCC(c3c4c(nn3C)CCCC4)CC2)c1Cl [Compound 592, 3-(1-((5-chloro-1-methyl-1H-pyrazol-4-yl)sulfonyl)piperidin-4-yl)-2-methyl-4,5,6,7-tetrahydro-2H-indazole] |
